{"source": "patent US20180147141A1", "about": "“CHEWING GUM COMPOSITION COMPRISING CANNABINOIDS AND GABAPENTIN” (AXIM Biotechnologies, Inc., priority 2016, published 2018)", "origin": "cited, not measured here", "system": "GABA receptors", "settings": "at concentrations at or below 1 millimolar"}
{"compound": "NCC1(CC(=O)O)CCCCC1", "note": "[Gabapentin, 1-(aminomethyl)cyclohexaneacetic acid]", "values": [{"measurement": "binding to GABA receptors", "result": "has not been shown to bind"}]}
